The target in the assay is T1, AMPA receptor (human GluR1 flip/stargazin expressed in CHO-K1 cells) (Homo sapiens, UniProt P42261).
T1 construct: expressed in transfected cells; host or cells: CHO-K1
As to the kind of experiment: AMPA receptor function enhancing activity using calcium influx as index. It counts as cell-based. To be noted: 100% = 3 mM glutamic acid + 300 μM cyclothiazide, 0% = 3 mM glutamic acid only. The text has this: Human GluR1 flip cDNA was amplified by PCR using forward primer […] (SEQ ID NO: 1) and reverse primer […] (SEQ ID NO: 2) artificially synthesized using human brain-derived cDNA (BD Bio science) as a template. The amplified product was digested with restriction enzymes EcoRI, NotI (TAKARA SHUZO CO. LTD.), and incorporated into the same site of pcDNA3.1(+) (Invitrogen) to construct pcDNA3.1(+)/human GluR1 flip gene. Human stargazin cDNA was amplified by PCR using forward primer […] (SEQ ID NO: 3) and reverse primer […] (SEQ ID NO: 4) artificially synthesized using human hippocampus cDNA as a template. The amplified product was digested with restriction enzymes XhoI, BamHI (TAKARA SHUZO CO. LTD.), and incorporated into the same site of pcDNA3.1(−) (Invitrogen) to construct pcDNA3.1 Zeo(−)/human stargazin gene.
CHO-K1 cells passaged in a culture medium (Ham's F12 medium (Invitrogen) added with 10% inactivated fetal bovine serum (Morgate) and penicillin, streptomycin (Invitrogen)) were detached with 0.05% trypsin, 0.53 mM EDTA (Invitrogen) diluted with D-PBS(−). The detached cells were suspended in a culture medium, and recovered by a centrifugation operation at 1,000 rpm. The recovered cells were suspended again in D-PBS(−), and added to a 0.4 cm electroporation cuvette (BioRad). pcDNA3.1(+)/human GluR1 flip gene (5 μg) and pcDNA3.1 Zeo(−)/human stargazin gene (15 μg) were added, and the mixture was introduced into CHO-K1 cells using Gene Pulser II (BioRad) under the conditions of 950 μFd, […]. The introduced cells were cultured overnight in a culture medium and, the next day, plated in a 96 well plate at 250 cells/well using a selection medium (culture medium added with Zeocin (Invitrogen) to 250 μg/mL). Clones showing drug resistance were selected, and GluR1 flip/stargazin expressing clones were selected by an assay method using calcium influx as an index as shown below.
CHO-K1/GluR1 flip/stargazin expressing cells were plated on a 96 well black transparent bottom plate (Costar) at 2×10^4 cells/well, and cultured in a 37° C., CO2 incubator (SANYO Electric Co., Ltd.) for 2 days. The medium in the cell plate was removed, and assay buffer A (D-MEM (Invitrogen), 0.1% BSA (Serogical Protein), 20 mM HEPES (Invitrogen)) was added at 50 μL/well. A calcium indicator (Calcium 4 Assay Kit, Invitrogen) added with 2.5 mM probenecid (Invitrogen) was added at 50 μL/well and the well was left standing in 37° C., CO2 incubator for 1 hr. The cell plate was set in CellLux (PerkinElmer), a mixture (50 μL) of 9 mM glutamic acid diluted with assay buffer B (HBSS (Invitrogen), 0.1% BSA, 20 mM HEPES) (final concentration 3 mM) and a test compound (test compound concentration 30 μM) was added, and the amount of change in fluorescence level in 3 min was measured. In the definition here, the amount of change in fluorescence level of well added with glutamic acid at final concentration 3 mM and 300 μM cyclothiazide (TOCRIS) is 100%, the amount of change in fluorescence level of well added only with glutamic acid at final concentration 3 mM is 0%, and the compound activity was calculated according to the following formula. activity(%)=(X−C)/(T−C)×100 T: amount of change in fluorescence level of well added with glutamic acid at final concentration 3 mM and 300 μM cyclothiazide C: amount of change in fluorescence level of well added only with glutamic acid at final concentration 3 mM X: amount of change in fluorescence level of well added with test compound

The mark [1] stands for this setting: test compound 30 μM with 3 mM glutamic acid, change in fluorescence level in 3 min.
Where [2] appears, read: test compound 30 μM with glutamic acid final 3 mM, change in fluorescence in 3 min.

T1 sequence (P42261 19-906 isoform P42261-2 limits assumed): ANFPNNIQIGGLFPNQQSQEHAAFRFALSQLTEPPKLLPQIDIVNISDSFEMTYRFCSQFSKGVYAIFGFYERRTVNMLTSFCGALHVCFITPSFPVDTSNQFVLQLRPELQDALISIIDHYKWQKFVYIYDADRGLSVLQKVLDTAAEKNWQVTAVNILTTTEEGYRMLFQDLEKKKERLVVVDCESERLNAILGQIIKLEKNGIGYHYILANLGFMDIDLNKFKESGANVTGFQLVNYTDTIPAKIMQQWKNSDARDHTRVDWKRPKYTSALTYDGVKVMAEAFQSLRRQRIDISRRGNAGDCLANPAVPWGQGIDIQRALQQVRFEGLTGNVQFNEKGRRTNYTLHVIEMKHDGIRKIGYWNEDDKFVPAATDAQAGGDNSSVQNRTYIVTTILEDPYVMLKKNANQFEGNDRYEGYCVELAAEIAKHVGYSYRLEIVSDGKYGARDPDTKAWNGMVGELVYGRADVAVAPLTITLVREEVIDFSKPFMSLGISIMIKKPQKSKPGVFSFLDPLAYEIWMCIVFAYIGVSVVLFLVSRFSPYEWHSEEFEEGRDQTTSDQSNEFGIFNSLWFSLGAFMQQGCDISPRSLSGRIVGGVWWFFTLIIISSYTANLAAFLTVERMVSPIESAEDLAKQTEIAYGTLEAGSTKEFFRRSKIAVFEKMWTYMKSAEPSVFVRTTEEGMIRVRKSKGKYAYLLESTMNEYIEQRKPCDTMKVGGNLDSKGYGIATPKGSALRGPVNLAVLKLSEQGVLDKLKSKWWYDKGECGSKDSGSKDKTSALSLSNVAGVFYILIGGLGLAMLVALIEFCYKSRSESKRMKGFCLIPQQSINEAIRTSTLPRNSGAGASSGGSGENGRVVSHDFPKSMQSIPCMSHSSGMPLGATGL
T1 sequence (Q9Y698 whole entry partner): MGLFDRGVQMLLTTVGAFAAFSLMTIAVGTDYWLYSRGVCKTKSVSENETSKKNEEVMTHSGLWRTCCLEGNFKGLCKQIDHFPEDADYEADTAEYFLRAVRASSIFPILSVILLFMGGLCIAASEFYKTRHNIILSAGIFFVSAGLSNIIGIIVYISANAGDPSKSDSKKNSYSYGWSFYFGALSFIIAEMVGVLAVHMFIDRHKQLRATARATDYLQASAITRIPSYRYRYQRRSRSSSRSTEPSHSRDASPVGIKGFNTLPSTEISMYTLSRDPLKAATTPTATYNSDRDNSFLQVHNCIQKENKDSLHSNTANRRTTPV

Consider `CC1CC(c2ccc(Oc3cccc(C(C)(F)F)c3)cc2)C2=NS(=O)(=O)CCN2C1` (racemic) [Example 172, 9-{4-[3-(1,1-difluoroethyl)phenoxy]phenyl}-7-methyl-3,4,6,7,8,9-hexahydropyrido[2,1-c][1,2,4]thiadiazine 2,2-dioxide], for which the “activity (%)” value under setting [1] worked out at 74%. As to `CC1CC(c2ccc(Oc3cccc(C(C)(F)F)c3)cc2)C2=NS(=O)(=O)CCN2C1` (racemic) [Example 173, 9-{4-[3-(1,1-difluoroethyl)phenoxy]phenyl}-7-methyl-3,4,6,7,8,9-hexahydropyrido[2,1-c][1,2,4]thiadiazine 2,2-dioxide], the “activity (%)” value under setting [1] turned out to be 68%. `CCC(C)c1ccc(NC(=O)C2=NC=CN3CCS(=O)(=O)N=C23)cc1` (stereo not drawn) [Example 1, N-[4-(1-methylpropyl)phenyl]-3,4-dihydropyrazino[2,1-c][1,2,4]thiadiazine-9-carboxamide 2,2-dioxide]: the “activity (%)” value under setting [2] is 66%. For the molecule `O=C(Nc1ccc(C2CC2)cc1)C1=CC=CN2CCS(=O)(=O)N=C12` [Example 4, N-(4-cyclopropylphenyl)-3,4-dihydropyrido[2,1-c][1,2,4]thiadiazine-9-carboxamide 2,2-dioxide], under setting [2], the “activity (%)” value is given as 85%. `Cc1nc2cc(OC3=CC=CN4CCS(=O)(=O)N=C34)ccc2s1` [Example 24, 9-[(2-methyl-1,3-benzothiazol-5-yl)oxy]-3,4-dihydropyrido[2,1-c][1,2,4]thiadiazine 2,2-dioxide]: the “activity (%)” value under setting [2] came to 78%.

As for `CC(C)c1ccc(CCC2=CC=CN3CCS(=O)(=O)N=C23)cc1` [Example 25, 9-{2-[4-(1-methylethyl)phenyl]ethyl}-3,4-dihydropyrido[2,1-c][1,2,4]thiadiazine 2,2-dioxide], under setting [2], the “activity (%)” value turned out to be 98%.

In the case of `CC(C)c1ccc(C(=O)NC2=CC=CN3CCS(=O)(=O)N=C23)cc1` [Example 37, N-(2,2-dioxido-3,4-dihydropyrido[2,1-c][1,2,4]thiadiazin-9-yl)-4-(1-methylethyl)benzamide], the “activity (%)” value under setting [2] is given as 95%. For `O=S1(=O)CCN2CCCC(c3ccc(Oc4ccccc4)cc3)C2=N1` (stereo not drawn) [Example 43, 9-(4-phenoxyphenyl)-3,4,6,7,8,9-hexahydropyrido[2,1-c][1,2,4]thiadiazine 2,2-dioxide], the “activity (%)” value under setting [2] amounted to 81%. Still for that read-out and setting: with `O=S1(=O)CCN2C=CC=C(c3ccc4ccccc4c3)C2=N1` [Example 46, 9-naphthalen-2-yl-3,4-dihydropyrido[2,1-c][1,2,4]thiadiazine 2,2-dioxide] the figure was 80%. On the same count and under the same terms, with `CC(C)c1ccc(/C=C/C2=CC=CN3CCS(=O)(=O)N=C23)cc1` [Example 51, 9-{(E)-2-[4-(1-methylethyl)phenyl]ethenyl}-3,4-dihydropyrido[2,1-c][1,2,4]thiadiazine 2,2-dioxide] the figure was 87%; with `CC(C)c1ccc(COC2=CC=CN3CCS(=O)(=O)N=C23)cc1` [Example 52, 9-{[4-(1-methylethyl)benzyl]oxy}-3,4-dihydropyrido[2,1-c][1,2,4]thiadiazine 2,2-dioxide], 67%. On to `O=S1(=O)CCN2CCCC(c3ccc(-c4ccccc4)s3)C2=N1` (stereo not drawn) [Example 57, 9-(5-phenylthiophen-2-yl)-3,4,6,7,8,9-hexahydropyrido[2,1-c][1,2,4]thiadiazine 2,2-dioxide], for which the “activity (%)” value under setting [2] came out at 86%. As to `COc1ccc2ccc(OC3CCCN4CCS(=O)(=O)N=C34)cc2c1` (stereo not drawn) [Example 60, 9-[(7-methoxynaphthalen-2-yl)oxy]-3,4,6,7,8,9-hexahydropyrido[2,1-c][1,2,4]thiadiazine 2,2-dioxide], the “activity (%)” value under setting [2] is 63%.

As to `O=S1(=O)CCN2C=CC=C(c3ccc(OC4CC4)cc3)C2=N1` [Example 70, 9-[4-(cyclopropyloxy)phenyl]-3,4-dihydropyrido[2,1-c][1,2,4]thiadiazine 2,2-dioxide], under setting [2], the “activity (%)” value is listed as 86%.

Regarding `CCC(CC)Oc1ccc(C2=CC=CN3CCS(=O)(=O)N=C23)cc1` [Example 72, 9-[4-(1-ethylpropoxy)phenyl]-3,4-dihydropyrido[2,1-c][1,2,4]thiadiazine 2,2-dioxide], the “activity (%)” value under setting [2] is given as 80%. As to `O=S1(=O)CCN2C=CC=C(c3ccc(N4CCCC4)cc3)C2=N1` [Example 80, 9-(4-pyrrolidin-1-ylphenyl)-3,4-dihydropyrido[2,1-c][1,2,4]thiadiazine 2,2-dioxide], the “activity (%)” value under setting [2] worked out at 88%. As for `O=S1(=O)CCN2C=CC=C(c3ccc(OCc4cccc(F)c4)cc3)C2=N1` [Example 82, 9-{4-[(3-fluorobenzyl)oxy]phenyl}-3,4-dihydropyrido[2,1-c][1,2,4]thiadiazine 2,2-dioxide], the “activity (%)” value under setting [2] is on record as 65%. In the case of `O=S1(=O)CCN2CCCC(c3ccc(OCc4cccc(F)c4)cc3)C2=N1` (stereo not drawn) [Example 83, 9-{4-[(3-fluorobenzyl)oxy]phenyl}-3,4,6,7,8,9-hexahydropyrido[2,1-c][1,2,4]thiadiazine 2,2-dioxide], the “activity (%)” value under setting [2] is recorded as 57%. Same read-out and setting: with `O=S1(=O)CCN2C=CC=C(c3ccc(Oc4cccc(Cl)c4)cc3)C2=N1` [Example 85, 9-[4-(3-chlorophenoxy)phenyl]-3,4-dihydropyrido[2,1-c][1,2,4]thiadiazine 2,2-dioxide] the figure was 84%; with `O=S1(=O)CCN2CCCC(c3ccc(Oc4ccccc4C(F)(F)F)cc3)C2=N1` (stereo not drawn) [Example 86, 9-{4-[2-(trifluoromethyl)phenoxy]phenyl}-3,4,6,7,8,9-hexahydropyrido[2,1-c][1,2,4]thiadiazine 2,2-dioxide], 67%; with `O=S1(=O)CCN2C=CC=C(c3ccc(O)cc3)C2=N1` [Example 87, 4-(2,2-dioxido-3,4-dihydropyrido[2,1-c][1,2,4]thiadiazin-9-yl)phenol], 51%. For `O=S1(=O)CCN2C=CC=C(c3ccc(OC4CCCCCC4)cc3)C2=N1` [Example 88, 9-[4-(cycloheptyloxy)phenyl]-3,4-dihydropyrido[2,1-c][1,2,4]thiadiazine 2,2-dioxide], under setting [2], the “activity (%)” value came out at 75%.

Turning to `O=S1(=O)CCN2C=C(F)C=C(c3ccc(OC4CCCCC4)cc3)C2=N1` [Example 89, 9-[4-(cyclohexyloxy)phenyl]-7-fluoro-3,4-dihydropyrido[2,1-c][1,2,4]thiadiazine 2,2-dioxide], the “activity (%)” value under setting [2] came out at 85%. In the case of `COc1cccc(Oc2ccc(C3=CC=CN4CCS(=O)(=O)N=C34)cc2)c1` [Example 90, 9-[4-(3-methoxyphenoxy)phenyl]-3,4-dihydropyrido[2,1-c][1,2,4]thiadiazine 2,2-dioxide], the “activity (%)” value under setting [2] is on record as 78%. Regarding `O=S1(=O)CCN2C=CC=C(c3ccc(OC4CCC4)cc3)C2=N1` [Example 91, 9-[4-(cyclobutyloxy)phenyl]-3,4-dihydropyrido[2,1-c][1,2,4]thiadiazine 2,2-dioxide], the “activity (%)” value under setting [2] was 81%. For the molecule `O=S1(=O)CCN2C=CN=C(c3ccc(OC4CCCCC4)nc3)C2=N1` [Example 94, 9-[6-(cyclohexyloxy)pyridin-3-yl]-3,4-dihydropyrazino[2,1-c][1,2,4]thiadiazine 2,2-dioxide], the “activity (%)” value under setting [2] came to 71%. For `O=S1(=O)CCN2CCCC(c3ccc(-c4ccccc4)c(F)c3)C2=N1` (stereo not drawn) [Example 96, 9-(2-fluorobiphenyl-4-yl)-3,4,6,7,8,9-hexahydropyrido[2,1-c][1,2,4]thiadiazine 2,2-dioxide], the “activity (%)” value under setting [2] came to 74%.

For the origin of these results see patent US8916551B2, “Heterocyclic compound and use thereof” (Takeda Pharmaceutical Company Limited, priority 2010, dated 2014).
